{
  "source": "patent US20230277669A1",
  "about": "“USES OF UROLITHINS” (Amazentis SA, priority 2022, published 2023)",
  "system": "CD3^+ T cells",
  "experiment": "qPCR analysis of in vitro activated CD3+ cells",
  "assay_type": "cell-based",
  "experimental": "(FIG. 4A) Scheme of CD3+ T-cell activation and analysis for various timepoints in order to investigate mitophagy induction in vitro. (FIG. 4B) Analysis of mitochondrial membrane potential within CD8+ T cells, with TMRM^lo representing cells with low mitochondrial membrane potential. Analysis was performed six hours after stimulation with aCD/aCD28 stimulation beads at the presence of the indicated treatments. N=4 per group, *p < 0.05 by Mann Whitney U test. One of two independent experiments are shown. (FIG. 4C) Representative flow histogram and quantification of lysosome formation in CD8+ cells six hours after in vitro stimulation. MFI shown relative to DMSO controls, n=4. Data are normalised mean ± SD, statistical analysis by two-sided t-test. One out of two independent experiments are shown. (FIG. 4D) Mitotracker Red staining of in vitro stimulated CD8+ cells after 24 hours of Urolithin A (UA25 n=6; UA50 n=6) or vehicle control treatment (DMSO: n=4). […] (FIG. 4H) CD8+ cells from Pink1^-/- mice display deficient mitophagy upon UA treatment in vitro: Lysosome formation in CD8+ of Pink1^-/- mice as assessed by Lysotracker staining 6h post stimulation at the presence of UA or DMSO (n=4). […] Quantification of TCF1^hi cells among CD8. (FIG. 4N) Quantification of PD1^hi cells among CD8. (FIG. 4O) Quantification of and Tim3^hi cells among CD8. […]",
  "data": [
    {"smiles": "O=c1oc2cc(O)ccc2c2ccc(O)cc12", "note": "[Urolithin A]", "values": [
      {"measurement": "autophagy genes and Pink1 (qPCR)", "setting": "24 h after activation", "result": "significant upregulation"},
      {"measurement": "transcription of Wnt target genes (qPCR)", "setting": "24 h after stimulation", "result": "increased transcription"}
    ]}
  ]
}
